Several values for one entry are separate records, joined by “and”; a condition that tells them apart may be missing. Equal entries are not always repeated. Where no end group is shown, it is not given here. red fluorescent dye = not defined here

Assay [1] addresses T1, AKT1 (Homo sapiens, UniProt P31749).
T1 construct: purchased Upstate Biotechnology
The assay can be described thus: AKT1 radioactive in vitro kinase assay (32P incorporation into Ser-21 GSK-3 substrate peptide). The format is biochemical. The procedure: AKT1 catalytic activity was determined by measuring the incorporation of −^32P into Ser-21 glycogen synthase kinase 3[…] (GSK-3[…]) substrate peptide. Histogram bars represent the number of −^32P counts per minute (CPM). Reactions were carried out in the presence of different concentrations of the ZaTa peptide (SEQ ID NO:60), as well as a control peptide (SEQ ID NO:59) which shares 11 out of 17 amino acids in common with the N-terminus of the ZaTa peptide.
Of particular interest with regard to inhibitory activity toward AKT was peptide […](SEQ ID NO:60) which flanked the Thr-197 phosphorylation site of PKAc. […] Furthermore, the inhibitory effect of ZaTa peptide was compared with an adjacent peptide ([…] SEQ ID NO:59), a peptide that overlaps with the 11 N-terminal amino acid residues of the ZaTa peptide and carries the Thr-197 phosphorylation site. In this assay, the level of incorporation of −^32 P into Ser-21 GSK-3[…] substrate peptide was used as the measure of AKT1 in vitro catalytic activity.
For non-radioactive kinase assays, typically 25 ng of active AKT1 or PKAc (Upstate Biotechnology) was used in a kinase assay reaction buffer (20 mM MOPS, pH 7.2, 25 mM […]-glycerophosphate, 5 mM EGTA, 1 mM Na3VO4, 1 mM dithiothreitol, 75 mM MgCl2, and 0.5 mM ATP) in the presence of either 1 μL of Ser-9 GSK-3 GST fusion protein (Cell Signaling), or recombinant DARPP-32 (10 μg). For the radioactive kinase assays, typically 25 ng of kinase was added to the kinase assays reaction buffer (20 mM MOPS, pH 7.2, 25 mM […]-glycerophosphate, 5 mM EGTA, 1 mM Na3VO4, 1 mM dithiothreitol) containing 30 μM of dephosphorylated Ser-21 GSK-3 substrate peptide (Upstate Biotechnology) in the presence of different concentrations of inhibitor. Reactions were initiated by adding [−^32P] ATP (10 μCi/reaction) which was diluted in the reaction buffer, plus 500 μM cold ATP and 75 mM MgCl2. Kinase reactions were incubated 30° C. for 10-20 minutes. A 5 μL aliquot of the reaction was transferred to phosphocellulose paper, washed for 30 minutes with dH2O, and CPM of samples read in scintillation counter.

In assay [2] the target is T2, SGK (Homo sapiens, UniProt O00141).
T2 construct: endogenous in cells
T2 sequence (O00141 1-431): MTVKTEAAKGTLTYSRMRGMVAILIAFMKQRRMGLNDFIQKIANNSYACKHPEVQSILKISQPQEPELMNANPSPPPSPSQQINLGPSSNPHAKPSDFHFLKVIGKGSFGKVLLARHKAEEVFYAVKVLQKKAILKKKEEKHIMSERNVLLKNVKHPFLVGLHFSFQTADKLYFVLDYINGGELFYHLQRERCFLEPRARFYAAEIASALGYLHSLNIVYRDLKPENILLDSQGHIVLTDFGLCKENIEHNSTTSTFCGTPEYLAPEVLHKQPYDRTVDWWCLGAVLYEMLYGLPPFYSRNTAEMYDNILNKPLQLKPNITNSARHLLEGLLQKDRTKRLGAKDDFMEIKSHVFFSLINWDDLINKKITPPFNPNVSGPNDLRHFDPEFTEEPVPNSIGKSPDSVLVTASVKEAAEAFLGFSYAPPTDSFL
The assay can be described thus: Cell-based kinase assay, phosphorylation of intracellular substrate (Ser-421 Huntingtin). The procedure:
As a specific substrate, the phosphorylation level of GSK-3[…] at Ser-9 was also evaluated. […] The decrease was specific to the AKT phosphorylation site on GSK-3[…] at Ser-9, since a change in the phosphorylation level of GSK-3[…] at Tyr-216 or GSK-3[…] at Tyr-279 was not observed. Moreover, the in vivo reduction of the phosphorylation of AKT substrates was more obvious at the injection site, since a significant change in the phosphorylation of AKT substrates in the frontal cortex or cerebellum between the two hemispheres was not observed. […] To test the specificity/selectivity of ZaTa as the inhibitor of AKT1 versus the other major kinases, a series of in vitro kinase assays was performed at IC50 for AKT1 and at ten times higher concentrations. […]
Phosphorylation sites for kinases analyzed herein included Ser-235/236 S6 (a substrate for p70S6K), Tyr-207 CRKL (a substrate for Abl; Zipfel, et al. (2004) supra), Ser-241 PDK1 (a substrate for PI3K), Tyr-1022/1023 JAK1 (a substrate for JAK3; Wang, et al. (2003) supra), Ser-421 Huntingtin (a substrate for SGK; Rangone, et al. (2004) supra), Tyr-783 PLC (a substrate for TrkB; Middlemas, et al. (1994) supra), and Ser-338 cRaf (a substrate for PAK3; King, et al. (1998) supra).

T1 sequence (P31749 whole entry): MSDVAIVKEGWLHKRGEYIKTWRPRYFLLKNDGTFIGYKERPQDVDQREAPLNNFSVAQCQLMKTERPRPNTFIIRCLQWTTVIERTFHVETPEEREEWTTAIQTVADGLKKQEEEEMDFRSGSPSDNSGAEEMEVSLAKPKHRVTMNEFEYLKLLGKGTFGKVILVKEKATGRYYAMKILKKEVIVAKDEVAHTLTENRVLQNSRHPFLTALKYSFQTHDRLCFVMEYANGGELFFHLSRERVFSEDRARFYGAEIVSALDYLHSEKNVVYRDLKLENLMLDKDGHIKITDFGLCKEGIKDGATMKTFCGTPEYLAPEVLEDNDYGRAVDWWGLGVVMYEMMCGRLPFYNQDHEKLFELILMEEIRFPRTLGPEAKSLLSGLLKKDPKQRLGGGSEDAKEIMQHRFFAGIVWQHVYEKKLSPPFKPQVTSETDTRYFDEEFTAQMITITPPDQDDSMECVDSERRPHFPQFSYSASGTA

Consider AKRVKGRTWTLCGTPEY [ZaTa], for which, in assay [1] (32P incorporation into Ser-21 GSK-3 substrate peptide, read-out: IC-50, AKT1 catalytic activity in vitro), the IC50 was ~0.1 µM and 0.1 µM. Further, the “IC-50 of the ZaTa peptide (in words)” value in assay [1] (FIG. 1 legend) is on record as “within a nanomolar range”. Further, the “whether peptide is a substrate for AKT” value in assay [1] (control kinase reactions with peptide and AKT only) is listed as “not a substrate for AKT”.

In the case of “labeled ZaTa: ZaTa peptide labeled with a red fluorescent dye at its N-terminus ({red fluorescent dye}-AKRVKGRTWTLCGTPEY; reading uncertain)”, in assay [2], the “inhibition of SGK in cells” value is “did not cause inhibition”.

Source of the values: US8541670B2, “Compositions and methods for inhibiting tumor cell growth” (priority 2007, dated 2013).
